ChEMBL document CHEMBL3797054, “Discovery of a series of 8-(2,3-dihydro-1,4-benzoxazin-4-ylmethyl)-2-morpholino-4-oxo-chromene-6-carboxamides as PI3Kβ/δ inhibitors for the treatment of PTEN-deficient tumours” (Bioorg Med Chem Lett, 2016)

Tests used:
[1] = Intrinsic clearance in human hepatocytes assessed per million cells; type: ADME, cell-based, Hepatocyte; conditions: read-out: CLH
physchem = conditions: buffer, pH 7.4
[2] = AUC in hairy mouse at 30 umol/kg, po; type: ADME, organism-based; conditions: in vivo
in vitro = conditions: human, Caco-2
[3] = Volume of distribution at steady state in hairy mouse blood at 5 umol/kg, iv and 30 umol/kg, po; type: ADME, organism-based; conditions: read-out: Vdss
[4] = Oral bioavailability in hairy mouse blood at 30 umol/kg; type: ADME, organism-based
[5] = Clearance in hairy mouse blood at 5 umol/kg, iv and 30 umol/kg, po; type: ADME, organism-based
Hepatocyte = experiment: Intrinsic clearance in mouse hepatocytes assessed per million cells; type: ADME, cell-based
[6] = Oral bioavailability in dog blood at 10 umol/kg; type: ADME, organism-based, Canis lupus familiaris
[7] = Intrinsic clearance in dog hepatocytes assessed per million cells; type: ADME, cell-based, Canis lupus familiaris, Hepatocyte
[8] = Clearance in dog blood at 4 umol/kg, iv and 10 umol/kg, po; type: ADME, organism-based, Canis lupus familiaris
[9] = Volume of distribution at steady state in dog blood at 4 umol/kg, iv and 10 umol/kg, po; type: ADME, organism-based, Canis lupus familiaris; conditions: read-out: Vdss

hepatocyte CLint [1] [µL/min/1e6 cells]	logD (physchem)	AUC [2] [µM·h]	Papp A→B at 2 h, 10 µM (in vitro) [×10⁻⁶ cm/s]	SMILES	also measured
8	2.1	2.4	11	COCCN(Cc1cc(C(=O)N(C)C)cc2c(=O)cc(N3CCOCC3)oc12)c1cc(F)cc(F)c1	
4	2	2.8	11	C[C@@H]1CN(c2cc(=O)c3cc(C(=O)N4CCOCC4)cc(CN4CCOc5ccc(F)cc54)c3o2)CCO1	
< 3				C[C@@H]1CN(c2cc(=O)c3cc(C(=O)N4CCOCC4)cc(CN4CCOc5c(F)cc(F)cc54)c3o2)CCO1	
15	2.3			C[C@@H]1CN(c2cc(=O)c3cc(C(=O)N(C)C)cc(CN4CCOc5ccc(F)cc54)c3o2)CCO1	
< 5		4.9		CN(C)C(=O)c1cc(CN(C)c2cc(F)cc(F)c2)c2oc(N3CCOCC3)cc(=O)c2c1	
< 3	2	7.3	28	C[C@@H]1CN(c2cc(=O)c3cc(C(=O)N(C)C)cc(CN4CCOc5c(F)cccc54)c3o2)CCO1	
14	2.2		14	COCCN(Cc1cc(C(=O)N(C)C)cc2c(=O)cc(N3CCO[C@H](C)C3)oc12)c1cc(F)cc(F)c1	
< 1	1.7	3.9	6.5	CN(C)C(=O)c1cc(CN2CCOc3c(F)cccc32)c2oc(N3CCOCC3)cc(=O)c2c1	Vd [3]: 1.9 L/kg; bioavailability [4]: 47%; clearance [5]: 49 mL/min/kg; hepatocyte CLint (Hepatocyte): 21 µL/min/1e6 cells; bioavailability [6]: 63%; hepatocyte CLint [7]: 4 µL/min/1e6 cells; clearance [8]: 13 mL/min/kg; Vd [9]: 1.6 L/kg
< 3		1		C[C@@H]1CN(c2cc(=O)c3cc(C(=O)N4CCOCC4)cc(CN4CCOc5c(F)cccc54)c3o2)CCO1	
12	1.9			CN(C)C(=O)c1cc(CN2CCOc3ccc(F)cc32)c2oc(N3CCOCC3)cc(=O)c2c1	
< 3	1.5			CN(C)C(=O)c1cc(CN(CC#N)c2cc(F)cc(F)c2)c2oc(N3CCOCC3)cc(=O)c2c1	
5	2.7	15.3	55	C[C@@H]1CN(c2cc(=O)c3cc(C(=O)N(C)C)cc(CN(C)c4cc(F)cc(F)c4)c3o2)CCO1	
< 3	1.8			CN(C)C(=O)c1cc(CN(CCC#N)c2cc(F)cc(F)c2)c2oc(N3CCOCC3)cc(=O)c2c1	
7	2.1	4.4	9	CN(C)C(=O)c1cc(CN2CCOc3c(F)cc(F)cc32)c2oc(N3CCOCC3)cc(=O)c2c1	
8	2.3		25	C[C@@H]1CN(c2cc(=O)c3cc(C(=O)N(C)C)cc(CN4CCOc5c(F)cc(F)cc54)c3o2)CCO1	
	2			CC(c1cc(C(=O)N(C)C)cc2c(=O)cc(N3CCOCC3)oc12)N1CCOc2c(F)cc(F)cc21 (configuration not stated)	
